Experimental data published in US20260327240A1, “1,4-CINEOLE DERIVATIVE AND INTERMEDIATE THEREOF, HERBICIDE CONTAINING SAID DERIVATIVE AS ACTIVE INGREDIENT, METHOD FOR USING HERBICIDE, AND METHOD FOR PREPARING AGROCHEMICAL COMPOSITION” (HOKKO CHEMICAL INDUSTRY CO., LTD., priority 2023, published 2026).

Key:
Type in all cases: in vivo
[1] = tested on: Echinochloa crus-galli var. formosensis; experiment: Test Example 1: herbicidal effect test by soil application in paddy rice; settings: 120 g per 10 ares, 14 days after application
Experimental: (§1) Herbicidal Effect Test by Soil Application in Paddy Rice
(§2) Wagner pots with an area of […] were filled with paddy soil, followed by addition of water and incorporation of chemical fertilizer (N:P:K=16:16:16), after which puddling was performed. After that, seeds of Echinochloa crus-galli var. formosensis, broad-leaved weeds (Lindernia pyxidaria and Monochoria vaginalis), and Scirpus juncoides were sown at a depth of 0 cm to 1 cm, 30 seeds each. Immediately after sowing, the pots were flooded and a water depth of approximately 3 cm was maintained. Subsequent management was conducted in a glass greenhouse. Immediately thereafter, an emulsifiable concentrate prepared according to Formulation Example 5 using the compound shown below was diluted with water, and a specified amount of the diluted solution was applied by dropper. The amount of the active ingredient to be applied was equivalent to 120 g per 10 ares.
(§3) The present test was conducted in duplicate for each chemical concentration group, and the weed inhibition rate (%) was determined 14 days after chemical application using the following formula (Math. 1).

Monochoria vaginalis [2] = experiment: as above; settings: 120 g per 10 ares, 14 days after application
Experimental: as §1, §2, §3

Scirpus juncoides [3] = experiment: as above; settings: 120 g per 10 ares, 14 days after application
Experimental: as §1, §2, §3

[4] = tested on: Echinochloa crus-galli var. formosensis; experiment: Test Example 2: herbicidal effect test by application during growth period of paddy rice; settings: 7 days after sowing, 120 g per 10 ares, 14 days after application
Experimental: (§4) Herbicidal Effect Test by Application During Growth Period of Paddy Rice
as §2, with “(Lindemia pyxidaria,” for “(Lindernia pyxidaria”, “Seven days after sowing,” for “Immediately thereafter,”, “ares. The test was conducted in duplicate for each chemical concentration group, and the herbicidal effect was evaluated 14 days after chemical application using the same criteria as in Test Example 1.” for “ares.”

Monochoria vaginalis [5] = experiment: as above; settings: 7 days after sowing, 120 g per 10 ares, 14 days after application
Experimental: as §4
as §2, with “(Lindemia pyxidaria,” for “(Lindernia pyxidaria”, “Seven days after sowing,” for “Immediately thereafter,”, “ares. The test was conducted in duplicate for each chemical concentration group, and the herbicidal effect was evaluated 14 days after chemical application using the same criteria as in Test Example 1.” for “ares.”

Scirpus juncoides [6] = experiment: as above; settings: 7 days after sowing, 120 g per 10 ares, 14 days after application
Experimental: as §4
as §2, with “(Lindemia pyxidaria,” for “(Lindernia pyxidaria”, “Seven days after sowing,” for “Immediately thereafter,”, “ares. The test was conducted in duplicate for each chemical concentration group, and the herbicidal effect was evaluated 14 days after chemical application using the same criteria as in Test Example 1.” for “ares.”

Digitaria ciliaris [7] = experiment: Test Example 3: herbicidal effect test by soil application in upland field; settings: 1 day after sowing, 120 g per 10 ares, 14 days after application
Experimental: (§5) Herbicidal Effect Test by Soil Application in Upland Field
(§6) Pots with an area of 36 cm^2 were filled with upland soil (alluvial loam), twenty seeds each of weeds of Digitaria ciliaris, Echinochloa crus-galli, Chenopodium album, and Amaranthus viridis were uniformly mixed with the top 1 cm layer of soil and the surface was lightly pressed down. One day after sowing, an emulsifiable concentrate prepared according to Formulation Example 5 using the compound shown below was diluted with water, and the diluted solution was sprayed onto the soil surface at a rate of 100 liters per 10 ares. The amount of the active ingredient to be applied was equivalent to 120 g per 10 ares. Fourteen days after chemical application, the herbicidal effect was evaluated according to the same criteria as in Test Example 1.

Echinochloa crus-galli [8] = experiment: as above; settings: 1 day after sowing, 120 g per 10 ares, 14 days after application
Experimental: as §5, §6

Digitaria ciliaris [9] = experiment: Test Example 4: herbicidal effect test by stem and leaf treatment in upland field; settings: 7 days after sowing, 120 g per 10 ares, 14 days after application
Experimental: (§7) Herbicidal Effect Test by Stem and Leaf Treatment in Upland Field
as §6, with “Seven days” for “One day”

Echinochloa crus-galli [10] = experiment: as above; settings: 7 days after sowing, 120 g per 10 ares, 14 days after application
Experimental: as §7
as §6, with “Seven days” for “One day”

[11] = tested on: Echinochloa crus-galli var. formosensis; experiment: Test Example 5: herbicidal effect test by soil application in paddy rice; settings: 7.5 g per 10 ares, 14 days after application
Experimental: as §1
as §2, with “(Lindemia pyxidaria,” for “(Lindernia pyxidaria”, “7.5” for “120”
The present test was conducted in duplicate for each chemical concentration group, and the herbicidal effect was evaluated 14 days after chemical application using the same criteria as in Test Example 1.

[12] = tested on: Echinochloa crus-galli var. formosensis; experiment: Test Example 6: herbicidal effect test by application during growth period of paddy rice; settings: 7 days after sowing, 7.5 g per 10 ares, 14 days after application
Experimental: as §4
as §2, with “(Lindemia pyxidaria,” for “(Lindernia pyxidaria”, “Seven days after sowing,” for “Immediately thereafter,”, “7.5” for “120”, “ares. The test was conducted in duplicate for each chemical concentration group, and the herbicidal effect was evaluated 14 days after chemical application using the same criteria as in Test Example 1.” for “ares.”

Digitaria ciliaris [13] = experiment: Test Example 7: herbicidal effect test by soil application in upland field; settings: 1 day after sowing, 7.5 g per 10 ares, 14 days after application
Experimental: as §5
as §6, with “7.5” for “120”

Echinochloa crus-galli [14] = experiment: as above; settings: 1 day after sowing, 7.5 g per 10 ares, 14 days after application
Experimental: as §5
as §6, with “7.5” for “120”

Digitaria ciliaris [15] = experiment: Test Example 8: herbicidal effect test by stem and leaf treatment in upland field; settings: 7 days after sowing, 7.5 g per 10 ares, 14 days after application; for inhibition at 75 g/ha: Digitaria ciliaris, read-out: weed inhibition rate
Experimental: as §7
as §6, with “Seven days” for “One day”, “7.5” for “120”

Echinochloa crus-galli [16] = experiment: as above; settings: 7 days after sowing, 7.5 g per 10 ares, 14 days after application
Experimental: as §7
as §6, with “Seven days” for “One day”, “7.5” for “120”

[17] = Echinochloa crus-galli, read-out: weed inhibition rate
[18] = Digitaria ciliaris, read-out: weed inhibition rate

CC(C)[C@]12C[C@@H](OCc3ccccc3F)[C@](C)(C[C@@H]1Cl)O2 [1-12]
≥ 80%: weed inhibition rate [1] | weed inhibition rate (Monochoria vaginalis [2]) | weed inhibition rate (Scirpus juncoides [3]) | weed inhibition rate [4] | weed inhibition rate (Monochoria vaginalis [5]) | weed inhibition rate (Scirpus juncoides [6]) | weed inhibition rate (Digitaria ciliaris [7]) | weed inhibition rate (Echinochloa crus-galli [8]) | weed inhibition rate (Digitaria ciliaris [9]) | weed inhibition rate (Echinochloa crus-galli [10]) | weed inhibition rate [11] | weed inhibition rate [12] | weed inhibition rate (Digitaria ciliaris [13]) | weed inhibition rate (Echinochloa crus-galli [14]) | weed inhibition rate (Digitaria ciliaris [15]) | weed inhibition rate (Echinochloa crus-galli [16])

CC(C)[C@]12C[C@@H](OCc3ccccc3F)[C@](C)(C=C1OS(=O)(=O)C(F)(F)F)O2 [3-680]
≥ 80%: weed inhibition rate [1] | weed inhibition rate (Scirpus juncoides [3]) | weed inhibition rate [4] | weed inhibition rate (Scirpus juncoides [6]) | weed inhibition rate (Digitaria ciliaris [7]) | weed inhibition rate (Echinochloa crus-galli [8]) | weed inhibition rate (Digitaria ciliaris [9]) | weed inhibition rate (Echinochloa crus-galli [10]) | weed inhibition rate [11] | weed inhibition rate [12] | weed inhibition rate (Digitaria ciliaris [13]) | weed inhibition rate (Echinochloa crus-galli [14]) | weed inhibition rate (Digitaria ciliaris [15]) | weed inhibition rate (Echinochloa crus-galli [16])

CC(C)[C@]12C[C@@H](OCc3ccccc3C(F)(F)F)[C@](C)(C[C@@H]1Br)O2 [1-700, (1S,2R,4R,5S)-5-bromo-1-methyl-4-isopropyl-2-[[2-(trifluoromethyl)phenyl]methoxy]-7-oxabicyclo[2.2.1]heptane]
≥ 80%: inhibition at 75 g/ha (Digitaria ciliaris [15])

CC(=O)O[C@@H]1C[C@]2(C)O[C@@]1(C(C)C)C[C@H]2OCc1ccccc1F [1-932, [(1R,2R,4S,5R)-5-[(2-fluorophenyl)methoxy]-4-methyl-1-isopropyl-7-oxabicyclo[2.2.1]heptan-2-yl]acetate]
≥ 80%: weed inhibition rate [1] | weed inhibition rate [4] | weed inhibition rate [11] | weed inhibition rate [12]

CC(C)[C@]12C[C@@H](OCc3ccccn3)[C@](C)(C[C@@H]1I)O2 [1-785, 2-[[(1S,2R,4R,5S)-5-iodo-4-isopropyl-1-methyl-7-oxabicyclo[2.2.1]heptan-2-yl]oxymethyl]pyridine]
≥ 80%: inhibition at 1200 g/ha [4, 17] | inhibition at 1200 g/ha (Scirpus juncoides [6]; Schoenoplectiella juncoides, read-out: weed inhibition rate) | inhibition at 1200 g/ha (Digitaria ciliaris [9]; [18]) | inhibition at 1200 g/ha (Echinochloa crus-galli [10]; [17]) | inhibition at 75 g/ha ([11]; Echinochloa crus-galli, 336 h, read-out: weed inhibition rate) | inhibition at 75 g/ha [12, 17] | inhibition at 75 g/ha (Digitaria ciliaris [13]; [18]) | inhibition at 75 g/ha (Echinochloa crus-galli [14]; [17]) | inhibition at 75 g/ha (Digitaria ciliaris [15]) | inhibition at 75 g/ha (Echinochloa crus-galli [16]; [17])
